Measurements taken from patent publication US20120093822A1, “DOPAMINE D2 RECEPTOR-DISC1 INTERACTION, COMPOSITIONS AND METHODS FOR MODULATING SAME” (Centre Forr Addiction And Mental Health, priority 2009, published 2012).
“Also recorded” adds a separate entry of the source. Like-named read-outs stand apart in the source and are kept apart here. Where no end group is shown, it is not given here.

Legend:
[1] = 100 Russian patients with schizophrenia; cited from earlier work
D2R = D2R (Homo sapiens, UniProt P14416); details: cited from earlier work
DISC1NT = assay: In vitro binding assay with [35S]-DISC1NT probe; details: glutathione beads with GST-fusion protein, autoradiography
Method: (§1) To construct GST-fusion proteins encoding truncated D2113, cDNA fragments were amplified by PCR with specific primers. All 5′ and 3′ oligonucleotides incorporated BamH1 site (GGATCC) and Xho1 sites (CTCGAG), respectively, to facilitate subcloning into vector pGEX-4T3 (for GST-fusion protein construction). GST-fusion proteins were prepared from bacterial lysates as described by the manufacturer (Amersham). To confirm appropriate splice fusion and the absence of spurious PCR generated nucleotide errors, all constructs were resequenced. For in vitro binding assays, the probes were made with DISC1-NT or DISC1-CT subcloned into mammalian expression vector pCDNA3 using TNT® T7 Quick Coupled Transcription/Translation System (Promega, Madison, Wis.) and [35S] methionine (PerkinElmer, Waltham, Mass.). Glutathione beads carrying 20 μg GST-fusion proteins of D2IL3 or GST alone were incubated at room temperature for 1 hour with [35S] methionine-labeled […] probe, respectively. The beads were then washed six times with PBS containing 0.1-0.5% (V/V) Triton X-100 and eluted with 10 mM glutathione elution buffer. Eluates were separated by SDS-PAGE and visualized by autoradiography using BioMax (Kodak) film.

DISC1CT = assay: In vitro binding assay with [35S]-DISC1CT probe; details: glutathione beads with GST-fusion protein, autoradiography
Method: as §1

DISC1 = target: T1, DISC1 (Rattus norvegicus, UniProt Q810H6); assay: Affinity purification (pull-down) of DISC1 from solubilized striatal tissue by GST fusion proteins of D2R fragments; type: binding; details: GST fusion protein
T1 construct: from tissue; host or cells: rat striatum, solubilized
T1 sequence (Q810H6 1-846): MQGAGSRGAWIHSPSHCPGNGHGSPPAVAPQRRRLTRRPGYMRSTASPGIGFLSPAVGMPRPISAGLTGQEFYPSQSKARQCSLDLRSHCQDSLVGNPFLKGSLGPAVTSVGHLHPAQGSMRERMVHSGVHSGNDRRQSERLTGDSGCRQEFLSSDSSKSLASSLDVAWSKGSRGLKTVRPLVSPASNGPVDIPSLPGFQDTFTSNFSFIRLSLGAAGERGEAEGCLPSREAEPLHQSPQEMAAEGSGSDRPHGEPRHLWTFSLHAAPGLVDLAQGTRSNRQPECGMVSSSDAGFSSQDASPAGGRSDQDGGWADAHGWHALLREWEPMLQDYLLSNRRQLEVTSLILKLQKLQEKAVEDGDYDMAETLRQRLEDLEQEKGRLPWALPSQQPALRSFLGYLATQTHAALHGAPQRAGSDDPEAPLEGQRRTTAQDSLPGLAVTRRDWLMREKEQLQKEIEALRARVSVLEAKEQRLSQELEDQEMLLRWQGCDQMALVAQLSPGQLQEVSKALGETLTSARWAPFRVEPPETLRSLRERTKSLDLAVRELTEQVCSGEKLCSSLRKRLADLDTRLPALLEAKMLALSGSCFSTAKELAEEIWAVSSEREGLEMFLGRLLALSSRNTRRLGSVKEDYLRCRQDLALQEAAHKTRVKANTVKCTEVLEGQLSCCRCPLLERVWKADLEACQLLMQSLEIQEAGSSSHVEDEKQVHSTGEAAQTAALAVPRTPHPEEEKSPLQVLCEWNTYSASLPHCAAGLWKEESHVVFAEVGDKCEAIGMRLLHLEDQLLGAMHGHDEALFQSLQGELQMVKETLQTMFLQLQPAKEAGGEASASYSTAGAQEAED
From the text: (A) Co-immunoprecipitation of DISC1 by D2 antibody in rat striatal tissue.
This method uses GST fusion proteins encoding the fragments of a test protein to affinity purify other proteins that may form complexes with the test protein in tissue from a specific brain region. Since DISC1 is an intracellular protein, we made GST-fusion proteins encoding two intracellular regions of D2R: the carboxyl tail (CT) of D2R (D2CT: T428-C443) and the third intracellular loop ([…]) of D2R (D2IL3: K211-Q373). Many dopamine receptor interacting proteins have been identified that interact with either the CT or the IL3 region of dopamine receptors (94). […] GST fusion proteins encoding these two fragments were made and used in the affinity purification experiment. […] Thus, we concluded that D2IL3-1-1 (SEQ ID NO:1) comprises the site for D2-DISC1 interaction.

D2-DISC1 interaction [2] = assay: Co-immunoprecipitation of D2-DISC1 after ICV administration of peptide; type: in vivo, rat; details: administered via ICV; data not shown
From the text: PPI of the acoustic startle reflex is a sensorimotor gating process known to be deficient in a number of neurologic and psychiatric conditions including, but not limited to schizophrenia, Huntington's disease, Tourette's syndrome, and obsessive compulsive disorder (OCD). PPI can be disrupted by the dopamine DI/D2R agonist apomorphine in rats (111). […] Accordingly, if D2-DISC1 interaction plays an important role in the D2R-mediated reduction of phosphorylation of GSK-3α/β, disruption of the D2R-DISC1 interaction should reverse D2R-associated behaviours such as PPI deficit. […] These effects could not be explained in terms of altered startle reactivity (data not shown). The ability of the TAT-D2pep (administered via ICV) to disrupt the D2-DISC1 interaction was confirmed in co-immunoprecipitation experiments (data not shown).

D2-DISC1 interaction [3] = assay: Apomorphine-induced disruption of pre-pulse inhibition (PPI) of the acoustic startle reflex in rats; type: in vivo, rat; details: for Effect on apomorphine-induced disruption of PPI / Effect on basal PPI (degree of PPI without apomorphine): rats; for Effect on apomorphine-induced disruption of PPI: apomorphine 0.3 mg/kg SC, peptide ICV (1 mM, 4 μl; 40 nmol), n=5 per group; for Effect on basal PPI (degree of PPI without apomorphine): peptide ICV
From the text: PPI of the acoustic startle reflex is a sensorimotor gating process known to be deficient in a number of neurologic and psychiatric conditions including, but not limited to schizophrenia, Huntington's disease, Tourette's syndrome, and obsessive compulsive disorder (OCD).

GSK-3α/β phosphorylation = assay: Western blot of phosphorylated GSK-3α/β (Ser-21/9) in transfected HEK-293T cells; type: cell-based
Method: (A) Western blot analysis of phosphorylated GSK-3α/β levels in extract prepared from transfected HEK293T cells in the presence or absence of DA. Alpha-tubulin was used as loading controls. (B) Densitometric analysis. Data are analyzed by t-test. (C) Cyclic AMP analysis in transfected HEK293T cells in the presence or absence of Foskolin and Quinpirole. Data are analyzed by one-way ANOVA. Data are means±SEM. Numbers of samples per group (n) are indicated. CTRL: Control; DA: Dopamine.
Alpha-tubulin was used as loading controls. CTRL: Control; DA: Dopamine.
Currently, all studies related to D2R-mediated Akt/GSK-3 signaling were carried out in brain tissue, where the expression of D2R and DISC1 was confirmed (11,89,99). At least to our knowledge, there are no studies of D2R-mediated Akt/GSK-3 signaling in HEK-293T cells. Furthermore, there is no evidence indicating the existence of endogenous DISC1 in HEK-293T cells. […] The intensity of phosphor-GSK-3α Ser-21 and […] binding was quantified by densitometry (software: AIS Imaging Research Inc) (FIG. 1B). […] acted as a loading control in this experiment. […]

[4] = target: T2, Disrupted-in-schizophrenia-1 (DISC1), endogenous, in solubilized rat striatal tissue (rat, UniProt Q810H6 1-846, limits assumed); assay: co-immunoprecipitation from rat striatal tissue with D1R antibody (data not shown)
T2 construct: Endogenous protein in a tissue extract
T2 sequence (looked up): T1 sequence (Q810H6 1-846)

Sequence of D2-DISC1 interaction (P61169 whole entry, one chain of several): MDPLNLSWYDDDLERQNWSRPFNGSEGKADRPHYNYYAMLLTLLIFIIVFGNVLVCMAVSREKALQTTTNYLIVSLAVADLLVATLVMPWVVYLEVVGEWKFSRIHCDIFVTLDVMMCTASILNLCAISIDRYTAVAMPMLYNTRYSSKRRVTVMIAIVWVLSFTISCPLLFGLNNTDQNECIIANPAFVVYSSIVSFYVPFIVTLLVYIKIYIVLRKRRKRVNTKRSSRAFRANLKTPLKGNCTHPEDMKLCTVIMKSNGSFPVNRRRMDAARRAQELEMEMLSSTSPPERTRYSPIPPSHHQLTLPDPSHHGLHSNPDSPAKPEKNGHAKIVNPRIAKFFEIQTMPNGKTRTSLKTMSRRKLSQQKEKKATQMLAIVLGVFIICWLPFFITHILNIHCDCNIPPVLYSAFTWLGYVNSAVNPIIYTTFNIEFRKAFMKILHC
Sequence of D2R (P14416 whole entry, the tested form may be a part): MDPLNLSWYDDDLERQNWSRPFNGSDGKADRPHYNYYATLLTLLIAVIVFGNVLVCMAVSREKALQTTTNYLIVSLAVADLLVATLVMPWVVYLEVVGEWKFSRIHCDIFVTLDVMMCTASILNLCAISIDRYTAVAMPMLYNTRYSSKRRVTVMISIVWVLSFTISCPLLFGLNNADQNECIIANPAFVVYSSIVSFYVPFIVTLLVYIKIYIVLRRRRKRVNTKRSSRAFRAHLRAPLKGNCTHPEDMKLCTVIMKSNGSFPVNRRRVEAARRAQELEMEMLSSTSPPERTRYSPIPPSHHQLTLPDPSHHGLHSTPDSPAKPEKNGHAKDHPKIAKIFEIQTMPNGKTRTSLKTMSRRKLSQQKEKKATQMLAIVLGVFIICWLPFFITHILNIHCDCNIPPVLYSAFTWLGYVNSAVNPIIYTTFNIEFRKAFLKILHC
Sequence of DISC1NT (Q9NRI5 1-75 limits assumed): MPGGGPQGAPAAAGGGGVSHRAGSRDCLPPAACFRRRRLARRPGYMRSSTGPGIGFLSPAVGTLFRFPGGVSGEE

N[C@@]1(C(=O)O)CS(=O)(=O)[C@H]2[C@H](C(=O)O)[C@H]21 [LY404,039]
Clinical effectiveness in schizophrenia [1]: significantly effective

OCCOCCN1CCN(C2=Nc3ccccc3Sc3ccccc32)CC1 [quetiapine]
Antagonism of β-arrestin 2 recruitment to D2R (D2R; induced by activation of D2R): potently antagonize

GST-D2IL3-1-1: GST fusion of D2IL3-1-1: K211-T225, KIYIVLRRRRKRVNT (SEQ ID NO:1) (also: GST fusion; UniProt P14416 211-225, looked up, fragment)
Binding of [35S]-DISC1NT probe (DISC1NT): bound | Binding of [35S]-DISC1CT probe (DISC1CT): not | Pull-down (precipitation) of DISC1 (DISC1): Affinity pull-down of the DISC1; also recorded: recognizes and precipitates DISC1

GST-D2CT: GST-fusion protein of the carboxyl tail of D2R (D2CT: T428-C443) (TFNIEFRKAFLKILHC; also: GST fusion; UniProt P14416 428-443, looked up, fragment)
Pull-down (precipitation) of DISC1 (DISC1): not

TAT-D2pep: TAT-D2 pep [K211-T225]: YGRKKRRQRRRKIYIVLRRRRKRVNT (SEQ ID NO:2) (TAT-[K211-T225]D2R fusion protein)
Ability to disrupt the D2-DISC1 interaction (co-immunoprecipitation) (D2-DISC1 interaction [2]): confirmed | Effect on apomorphine-induced disruption of PPI (D2-DISC1 interaction [3]): completely reversed the effects of apomorphine; also recorded: significantly reversed the disruption of PPI | Effect on basal PPI (degree of PPI without apomorphine) (D2-DISC1 interaction [3]): without altering the degree of PPI

O=C1Cc2cc(CCN3CCN(c4nsc5ccccc45)CC3)c(Cl)cc2N1 [ziprasidone]
Antagonism of β-arrestin 2 recruitment to D2R (D2R; induced by activation of D2R): potently antagonize

Cc1nc2n(c(=O)c1CCN1CCC(c3noc4cc(F)ccc34)CC1)CCCC2 [risperidone]
Antagonism of β-arrestin 2 recruitment to D2R (D2R): potently antagonize

TAT-D2pep-sc: scrambled peptide YGRKKRRQRRRVLRKTRIRRYKIRNV (SEQ ID NO:3) (TAT-D2 scrambled fusion protein)
Effect on apomorphine-induced disruption of PPI (D2-DISC1 interaction [3]): did not affect the response to apomorphine | Effect on apomorphine-induced disruption of PPI (D2-DISC1 interaction [3]; listed as TAT-D2pep-scramb): no effect | Effect on basal PPI (degree of PPI without apomorphine) (D2-DISC1 interaction [3]): did not affect

GST-D2IL3-1-2: GST fusion of D2IL3-1-2: K226-L240 (KRSSRAFRAHLRAPL; also: GST fusion; UniProt P14416 226-240, looked up, fragment)
Pull-down (precipitation) of DISC1 (DISC1): failed to

CN1CCc2cccc3c2[C@H]1Cc1ccc(O)c(O)c1-3 [apomorphine]
Effect on PPI in comparison with saline/vehicle (D2-DISC1 interaction [3]; rat, in vivo): reduced levels of PPI at all 3 prepulse intensities; also recorded: significantly disrupted PPI

GST-D2IL3-1: GST fusion protein of D2IL3-1: K211-V270 (KIYIVLRRRRKRVNTKRSSRAFRAHLRAPLKGNCTHPEDMKLCTVIMKSNGSFPVNRRRV; cysteine pairing not given here; also: GST fusion; UniProt P14416 211-270, looked up, fragment)
Pull-down (precipitation) of DISC1 (DISC1): Affinity pull-down of the DISC1; also recorded: recognizes and precipitates DISC1

NCCc1ccc(O)c(O)c1 [dopamine]
Phosphorylation of GSK3α/β (GSK-3α/β phosphorylation; HEK-293T cells co-expressing D2R and DISC1, 10 μM dopamine, 30 min): significantly decreased | Phosphorylation of GSK3α/β (GSK-3α/β phosphorylation; HEK-293T cells expressing D2R with pcDNA3, dopamine): failed to alter

B1: Dopamine D1 receptor (D1R), endogenous, in rat striatal tissue (receptor, UniProt P18901 1-446, looked up)
chain: MAPNTSTMDEAGLPAERDFSFRILTACFLSLLILSTLLGNTLVCAAVIRFRHLRSKVTNFFVISLAVSDLLVAVLVMPWKAVAEIAGFWPLGPFCNIWVAFDIMCSTASILNLCVISVDRYWAISSPFQYERKMTPKAAFILISVAWTLSVLISFIPVQLSWHKAKPTWPLDGNFTSLEDTEDDNCDTRLSRTYAISSSLISFYIPVAIMIVTYTSIYRIAQKQIRRISALERAAVHAKNCQTTAGNGNPVECAQSESSFKMSFKRETKVLKTLSVIMGVFVCCWLPFFISNCMVPFCGSEETQPFCIDSITFDVFVWFGWANSSLNPIIYAFNADFQKAFSTLLGCYRLCPTTNNAIETVSINNNGAVVFSSHHEPRGSISKDCNLVYLIPHAVGSSEDLKKEEAGGIAKPLEKLSPALSVILDYDTDVSLEKIQPVTHSGQHST
binding result [4]: no binding
